This is an account of results in ChEMBL document CHEMBL5236573, “Development of benzodioxine-heteroarylpiperazines as highly potent and selective α2c antagonists” (Bioorg Med Chem Lett, 2022).

Broadly, the Kb is the equilibrium dissociation constant of an antagonist, usually derived from a functional assay. The Cmax is the maximum level reached in the sampled fluid or tissue. What is called efflux ratio is a quotient of directional permeabilities that is used to spot active efflux. For orientation: AUC(0-t) means the area under the concentration-time curve up to a stated or last time point. A higher AUC(0-t) goes with high exposure. Usually fraction unbound stands for free concentration divided by total concentration. Lower therefore signals little free substance. One may read the Tmax as the time from dosing to the highest level. The logD is the decadic logarithm of the distribution of all forms, ionised or not, between an organic phase and buffer at a given pH. A low value points to a more hydrophilic compound. One may read the solubility as how much of the substance goes into solution per volume. Low values mean little dissolved substance, high ones much dissolved substance.

For one data set, the species on record is Homo sapiens. In words: Selectivity index, ratio of Kb for antagonist activity at alpha2a-adrenoceptor (unknown origin) to Kb for antagonist activity at alpha2c-adrenoceptor (unknown origin).
In data set [1] the target is T1, Alpha-2C adrenergic receptor (Homo sapiens) (UniProt P18825).
T1 sequence (whole entry): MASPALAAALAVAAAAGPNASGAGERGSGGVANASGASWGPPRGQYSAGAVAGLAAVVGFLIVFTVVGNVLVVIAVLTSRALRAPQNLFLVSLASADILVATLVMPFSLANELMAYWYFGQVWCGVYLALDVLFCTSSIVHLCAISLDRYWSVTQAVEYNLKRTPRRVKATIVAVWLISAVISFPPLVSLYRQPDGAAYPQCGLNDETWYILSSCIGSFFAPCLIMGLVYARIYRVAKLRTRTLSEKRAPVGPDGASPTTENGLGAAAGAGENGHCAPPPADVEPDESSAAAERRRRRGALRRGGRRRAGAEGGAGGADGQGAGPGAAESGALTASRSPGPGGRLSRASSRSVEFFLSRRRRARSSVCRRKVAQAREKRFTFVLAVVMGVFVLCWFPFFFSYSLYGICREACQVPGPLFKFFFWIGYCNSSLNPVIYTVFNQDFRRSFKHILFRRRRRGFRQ
In words: Antagonist activity at alpha2c-adrenoceptor (unknown origin) assessed as reduction in adrenaline-induced response by measuring equilibrium binding constant. The conditions noted are these: filed as antagonist.

In data set [2] the target is T2, Alpha-2A adrenergic receptor (Homo sapiens) (UniProt P08913).
T2 sequence (whole entry): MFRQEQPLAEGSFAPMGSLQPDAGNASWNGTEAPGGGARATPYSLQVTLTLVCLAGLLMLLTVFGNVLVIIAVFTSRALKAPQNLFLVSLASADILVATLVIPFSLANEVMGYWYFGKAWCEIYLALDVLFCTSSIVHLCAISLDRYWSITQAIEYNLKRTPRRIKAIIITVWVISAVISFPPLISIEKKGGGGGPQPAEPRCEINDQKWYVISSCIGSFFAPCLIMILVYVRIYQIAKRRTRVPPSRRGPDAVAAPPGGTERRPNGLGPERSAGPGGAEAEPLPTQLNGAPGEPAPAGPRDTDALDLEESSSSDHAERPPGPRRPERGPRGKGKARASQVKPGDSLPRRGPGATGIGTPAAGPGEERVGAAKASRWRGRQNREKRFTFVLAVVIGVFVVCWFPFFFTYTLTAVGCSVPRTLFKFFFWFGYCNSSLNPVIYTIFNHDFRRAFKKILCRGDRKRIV
Put plainly: Antagonist activity at alpha2a-adrenoceptor (unknown origin) assessed as reduction in adrenaline-induced response by measuring equilibrium binding constant. The conditions noted are these: filed as antagonist.

Data set [3] can be described thus: Permeability across apical to basolateral side in human Caco-2 cells. The class given is ADME, cell-based. As to conditions: read-out: permeability.
A short description of data set [4]: Unbound Cmax in rat plasma at 1 mg/kg, po by rapid equilibrium dialysis method. The conditions noted are these: in vivo. The class given is ADME, organism-based. (In equilibrium dialysis only unbound substance equilibrates across the membrane.)
Data set [5] is described as follows: Cmax in rat brain at 1 mg/kg, po. On the set-up: dose 1 mg/kg, route po. The format is ADME, organism-based.
Data set [6] in a line: Efflux ratio of permeability across basolateral to apical side over apical to basolateral side in human Caco-2 cells. The class given is ADME, cell-based. In general terms: Caco-2 monolayers are a common model of the intestinal barrier.
Data set [7] can be described thus: Unbound Cmax in rat brain at 1 mg/kg, po by rapid equilibrium dialysis method. As to conditions: in vivo. The class given is ADME, organism-based.
Data set [8] can be described thus: AUC (0 to 6 hrs) in rat brain at 1 mg/kg, po. The format is ADME, organism-based. On the set-up: dose 1 mg/kg, route po.
Data set [9] is described as follows: AUC (0 to 6 hrs) in rat plasma at 1 mg/kg, po. The class given is ADME, organism-based. On the set-up: dose 1 mg/kg, route po.
Data set [10] is described as follows: Metabolic stability in human hepatocytes assessed as clearance per 10^6 cells at 1 uM. The format is ADME, cell-based, Hepatocyte. The conditions noted are these: read-out: CLH.
A short description of data set [11]: Cmax in rat plasma at 1 mg/kg, po. The format is ADME, organism-based. On the set-up: dose 1 mg/kg, route po.
Data set [12] is described as follows: Unbound fraction in rat brain at 1 mg/kg, po. The format is ADME, organism-based.
A short description of data set [13]: Metabolic stability in rat hepatocytes assessed as clearance per 10^6 cells at 1 uM. The format is ADME, cell-based, Hepatocyte. As to conditions: read-out: CLH.
A short description of data set [14]: Permeability across basolateral to apical side in human Caco-2 cells. The format is ADME, cell-based. The conditions noted are these: read-out: permeability.
Data set [15] can be described thus: Unbound brain-to-plasma concentration ratio in rat at 1 mg/kg, po. The format is ADME, organism-based. As to conditions: brain and plasma, read-out: K(p,uu,brain).
A short description of data set [16]: Tmax in rat brain at 1 mg/kg, po. The format is ADME, organism-based.
A short description of data set [17]: Lipophilicity, logD of the compound. The class given is physicochemical. The conditions noted are these: octanol/water.
A short description of data set [18]: Tmax in rat plasma at 1 mg/kg, po. The format is ADME, organism-based.
Data set [19] can be described thus: Unbound fraction in rat plasma at 1 mg/kg, po. The format is ADME, organism-based.
The nature of data set [20]: Solubility of the compound in pH 7.4 buffer. The format is physicochemical.

Values after ≈ are worked out from the molar mass of the structure shown. A value given as a limit tells only on which side of the number the result lay.

Regarding `O=C1CCCN1c1cccnc1N1CCN(C[C@H]2COc3ccccc3O2)CC1`, the Ratio in the data set filed under Homo sapiens was found to be 4490. The values for the Kb in data set [1] and in data set [2] were 0.01 nM and 44.9 nM, respectively.
Regarding `O=C1CCCN1c1nsnc1N1CCN(C[C@H]2COc3ccccc3O2)CC1`, the Papp A→B in [3] came to 73.6 ×10⁻⁶ cm/s. In addition, the fCmax was 52 nM in data set [4] and 26 nM in data set [7]. The values for the Cmax in [5] and in [11] were 101 ng/g and 113 ng/mL, respectively. Moreover, the efflux ratio in [6] was 0.6. For the same compound, the Ratio in the data set filed under Homo sapiens came out at 5380. Moreover, the AUC(0-t) in [8] came out at 140 ng·h/mL; in data set [9] it was 189 ng·h/mL. Besides, the hepatocyte CLint at 1 µM in data set [10] is 8.2 µL/min/1e6 cells; in [13] it was 16.2 µL/min/1e6 cells. The fraction unbound in data set [12] stood at 0.104; in data set [19] it was 0.185. Moreover, the Kb in data set [1] came out at 0.05 nM; in [2], 282 nM. Moreover, in data set [14], the Papp B→A is 44.3 ×10⁻⁶ cm/s. For the same compound, in data set [15], the Kp uu worked out at 0.45. The time of peak concentration (Tmax) in data set [16] and in data set [18] was 15 min each time. In [17], the logD stood at 2.2. Also, the concentration in solution in data set [20] (solubility) was 822 µM (≈ 330 µg/mL).
As to `CN1CCN(c2nsnc2N2CCN(C[C@H]3COc4ccccc4O3)CC2)C1=O`, the Ratio in the data set listed under Homo sapiens came out at 4.15. Besides, the antagonist dissociation constant (Kb) in [1] came to 108 nM; in [2], 449 nM.
With `CN(C)C(=O)c1nsnc1N1CCN(C[C@H]2COc3ccccc3O2)CC1`, the Ratio in the data set filed under Homo sapiens was 4990. Also, the hepatocyte CLint at 1 µM in data set [10] amounted to 1.75 µL/min/1e6 cells; in [13], 30 µL/min/1e6 cells. In addition, the Kb is 0.09 nM in data set [1] and 449 nM in data set [2]. The logD in [17] was 2.5. The concentration in solution in [20] (solubility) was 719 µM (≈ 280 µg/mL).
Regarding `O=C1NCCN1c1nsnc1N1CCN(C[C@H]2COc3ccccc3O2)CC1`, the Ratio in the data set listed under Homo sapiens was 5930. Further, the hepatocyte CLint at 1 µM in [10] and in data set [13] was 1.8 µL/min/1e6 cells each time. Also, the Kb is 0.076 nM in data set [1] and 449 nM in data set [2].
As for `Oc1cccc([C@H]2CCCN(C[C@H]3COc4ccccc4O3)C2)c1`, the fCmax is listed as below 0.06 nM in data set [4] and below 0.09 nM in [7]. Further, the AUC(0-t) in data set [8] amounted to 14 ng·h/mL; in data set [9] it was 9 ng·h/mL. The unbound share (fraction unbound) in [12] and in [19] was below 0.01 in each case.
For the compound `CC1(C)CCN(c2nsnc2N2CCN(C[C@H]3COc4ccccc4O3)CC2)C1=O`, the Ratio in the data set filed under Homo sapiens is 44900. The hepatocyte CLint at 1 µM was 18.1 µL/min/1e6 cells in [10] and 128 µL/min/1e6 cells in [13]. The antagonist dissociation constant (Kb) in data set [1] was found to be 0.01 nM; in data set [2], 449 nM. In addition, the pH-dependent lipophilicity (logD) in [17] worked out at 3.1. The same compound gave a solubility in data set [20] of 133 µM (≈ 57.1 µg/mL).
`O=C1CCCN1c1ncsc1N1CCN(C[C@H]2COc3ccccc3O2)CC1`: the Papp A→B in data set [3] stood at 42.4 ×10⁻⁶ cm/s. Besides, the efflux ratio in data set [6] stood at 0.6. Also, the Ratio in the data set filed under Homo sapiens came out at 7940. Also, the hepatocyte CLint at 1 µM came out at 3.6 µL/min/1e6 cells in data set [10] and 5 µL/min/1e6 cells in data set [13]. The figures for the Kb in data set [1] and in [2] were 0.04 nM and 317 nM, respectively. Also, the Papp B→A in data set [14] was determined as 24.3 ×10⁻⁶ cm/s. Besides, the log distribution coefficient (logD) in data set [17] amounted to 1.9. For the same compound, the concentration in solution in data set [20] (solubility) was 1130 µM (≈ 451 µg/mL).
Take `COCc1cccnc1N1CCN(C[C@H]2COc3ccccc3O2)CC1` [ORM-13070]: the Ratio in the data set filed under Homo sapiens was determined as 4330. Also, the Kb in data set [1] was 0.03 nM; in [2], 130 nM. This compound yielded a pH-dependent lipophilicity (logD) in data set [17] of 3.3. In [20], this compound came in with a solubility of 176 µM (≈ 62.6 µg/mL).
`CC1CCN(c2nsnc2N2CCN(C[C@H]3COc4ccccc4O3)CC2)C1=O` (stereo not given in full): the Ratio in the data set listed under Homo sapiens stood at 11200. Moreover, the hepatocyte CLint at 1 µM was 6.3 µL/min/1e6 cells in [10] and 73.7 µL/min/1e6 cells in data set [13]. For the same compound, the Kb in data set [1] came to 0.04 nM; in data set [2], 449 nM. Further, the logD in data set [17] was determined as 2.8. This compound showed a solubility in data set [20] of 395 µM (≈ 164 µg/mL).
Turning to `c1ccc2c(c1)OC[C@H](CN1CCN(c3nsnc3Nc3ccncn3)CC1)O2`, in the data set listed under Homo sapiens, the Ratio is 45900. Also, the hepatocyte CLint at 1 µM in [10] came out at 14.2 µL/min/1e6 cells; in data set [13] it was 29.3 µL/min/1e6 cells. For the same compound, the Kb in data set [1] was determined as 0.01 nM; in [2] it was 459 nM.
`COc1scnc1N1CCN(C[C@H]2COc3ccccc3O2)CC1`: the Ratio in the data set filed under Homo sapiens was found to be 8830. The values for the hepatocyte CLint at 1 µM in data set [10] and in data set [13] were 14.3 µL/min/1e6 cells and 54.4 µL/min/1e6 cells, respectively. Further, the Kb in data set [1] turned out to be 0.01 nM; in [2] it was 88.3 nM. The logD in data set [17] is 2.3. The compound further yielded a solubility in [20] of 445 µM (≈ 155 µg/mL).
With `Cc1c(N2CCNC2=O)c(N2CCN(C[C@H]3COc4ccccc4O3)CC2)nn1C`, in [3], the Papp A→B was 2.9 ×10⁻⁶ cm/s. Besides, in data set [6], the efflux ratio was found to be 7.5. In addition, in the data set filed under Homo sapiens, the Ratio is 7480. Further, the hepatocyte CLint at 1 µM in data set [10] and in data set [13] was 1.8 µL/min/1e6 cells throughout. In addition, the antagonist dissociation constant (Kb) stood at 0.06 nM in data set [1] and 449 nM in data set [2]. In addition, the Papp B→A in data set [14] came out at 21.4 ×10⁻⁶ cm/s. In data set [20], the concentration in solution (solubility) came to 114 µM (≈ 47 µg/mL).
